Data taken from patent US4126686A, “Analgesic 3-(3-methyl-3-butenyl)-1,2,3,4,5,6-hexahydro-6,11-dimethyl-8-hydroxy-2,6 -methano-3-benzazocine” (priority 1976, dated 1978).
Where two headings read alike, the source gives them in different places.

Legend:
[1] = system: male mice of the dd strain; experiment: Analgesic activity by tail pinch method; assay type: in vivo, mouse (male; conditions: mouse
Protocol: (III) Analgesic activity by tail pinch method:
The experiment is carried out according to the method of H. Takagi et al [Jap. J. Pharmacol., 16, 287 (1966)].
In this experiment, male mice of the dd strain weighing 19-21 g are used in groups, each consisting of 10 mice. Before the experiment, animals which are sensitive to pressure stimulation are selected in the following manner.
The compound of formula (I), pentazocine or morphine is administered subcutaneously or orally to the selected mice. At 15, 30, 60, 90, and 120 minutes after the administration, an artery clip is repeatedly applied to the root of the tail of each mouse. […] ED50 is calculated according to the method of Litchfield and Wilcoxon [J. Pharmacol. & Exper. Therap., 96, 99 (1949)].

[2] = system: male rats of the Wistar strain; experiment: Analgesic activity by bradykinin method; assay type: in vivo, rat (male; conditions: rat
Protocol: (IV) Analgesic activity by bradykinin method:
The experiment is carried out according to the method of Abe et al [Nihon Yakuri Gakkai Si (J. Japanese Pharmacological Academy) 67, 9 (1971)].
(§1) In this experiment, male rats of the Wistar strain weighing 210-260 g were used in groups, each consisting of 10 rats. A cannula is inserted into the right carotid artery of the rat anesthetized with ether. After recovering completely from ether anesthesis, 0.2 ml of a physiological salt solution containing bradykinin in an amount of about 2 μg/ml is injected retrogradely to the rat through the cannula. […] The compound of formula (I), pentazocine or morphine is administered subcutaneously or orally to the rat. At 15, 30, 60, 90 and 120 minutes after the administration of the test compound, bradykinin is injected repeatedly to the rat in a similar manner to that described above. […] ED50 is calculated according to the method of Litchfield and Wilcoxon [J. Pharmacol. & Exper. Therap., 96, 99 (1949 )].

[3] = system: male mice of the dd strain; experiment: animal or person; assay type: in vivo, mouse (male; conditions: tail flick, mouse, subcutaneous administration
Protocol: (II) Analgesic activity by Tail Flick method:
The experiment is carried out according to the method of Tail Flick (D'Amour-Smith method) [J. Pharmacol., 72, 74 (1941)].
A light beam of an infrared lamp (100 V; 250W) is passed through a hole having a diameter of a half inch and is irradiated onto the end of the tail of each mouse (male dd strain; weight: 19-21 g) to effect a heat stimulation. […] The compound of formula (I), pentazocine or morphine is administered subcutaneously to the mice. At 15, 30, 60, 90 and 120 minutes after the administration, the heat stimulation is repeatedly carried out to the mice in a similar manner to that described above and after each heat stimulation the time until the flick reaction occurs is measured. […] ED50 is calculated according to the above-mentioned method of Litchfield and Wilcoxon.

[4] = Margin of safety (R = LD50/ED50), acetic acid writhing, mouse; conditions: in vivo
Protocol: (§2) The LD50 is calculated according to the method of Litchfield and Wilcoxon [J. of Pharmacol. and Exper. Therap., 96, 99 (1949)]. Male mice of the dd strain weighing 19-21 g and male rats of the Wistar strain weighing 80-100 g are used. One group consists of 10 mice or 10 rats. The compound of formula (I) and pentazocine are administered subcutaneously or orally to the test animals which are observed for one week.
(§3) Male mice of the dd strain weighing 19-21 g are used in groups, each consisting of 10 mice. The test compounds, i.e. the compound of formula (I), pentazocine and morphine are administered subcutaneously or orally to the test mice. Immediately after this, 0.2 ml of a 0.7% (v/v) aqueous solution of acetic acid is administered intraperitoneally to the test mice except those which has been administered orally with morphine, to which 0.2 ml of a 0.7% (v/v) aqueous solution of acetic acid is administered intraperitoneally at 15 minutes after a morphine administration. The mice of a control group are not administered with the test compounds but with only the acetic acid solution in a similar manner to that described above. At 10 minutes after the administration of acetic acid, the number of writhes is counted for 10 minutes. When the writhing numbers of the test group decrease to below 50% of the corresponding numbers of the control group, the test compound is determined to be analgesically active. ED50 is calculated according to the method of Litchfield and Wilcoxon [J. Pharmacol. & Exper. Therap., 96, 99 (1949)].
The usefulness of the compound as medicament is expressed by margin of safety (R) of the compound which is calculated by (LD50 /ED50). Compounds having higher R are deemed to be more useful as medicament than those having lower R. The margins of safety of the compound of formula (I) and pentazocine are shown in Table 6.

[5] = system: male mice of the dd strain; experiment: Analgesic activity by acetic acid writhing method; assay type: in vivo, mouse (male; conditions: mouse
Protocol: (I) Analgesic activity by acetic acid writhing method:
The experiment is carried out according to the method of Koster et al [Fed. Proc., 18, 412 (1959)].
as §3, with “The mice of a control group are not administered with the test compounds but with only the acetic acid solution in a similar manner to that described above.” left out, “When the writhing numbers of the test group decrease to below 50% of the corresponding numbers of the control group, the test compound is determined to be analgesically active.” left out

[6] = Margin of safety (R = LD50/ED50), bradykinin, rat; conditions: in vivo, sc, S.C. in rat
Protocol: as §2, §1
The usefulness of the compound as medicament is expressed by margin of safety (R) of the compound which is calculated by (LD50 /ED50). […]

[7] = Analgesic activity compared with pentazocine (general statement); assay type: in vivo; conditions: in words
[8] = Acute toxicity (LD50) in mice; set-up: species or system mouse (male, dd strain); conditions: in vivo, mouse, observed one week
Protocol: as §2

[9] = Acute toxicity (LD50) in rats; set-up: species or system rat (male, Wistar strain); conditions: in vivo, rat, observed one week
Protocol: as §2

[10] = oral administration, read-out: ED50
[11] = sc, subcutaneous administration, read-out: ED50
[12] = sc, subcutaneous administration

| Structure (SMILES) | ED50 [1, 10] [mg/kg] | ED50 [1, 11] [mg/kg] | ED50 [2, 10] [mg/kg] | ED50 [2, 11] [mg/kg] | ED50 ([3]; sc, read-out: ED50) [mg/kg] | selectivity ratio ([4]; po, P.O. in mouse) | selectivity ratio ([4]; sc, S.C. in mouse) | ED50 [5, 10] [mg/kg] | ED50 [5, 11] [mg/kg] | selectivity ratio [6] | LD50 at 168 h [8, 12] [mg/kg] | LD50 at 168 h ([8]; oral administration) [mg/kg] | LD50 at 168 h [9, 12] [mg/kg] | LD50 at 168 h ([9]; oral administration) [mg/kg] | also measured |
| --- | --- | --- | --- | --- | --- | --- | --- | --- | --- | --- | --- | --- | --- | --- | --- |
| C=C(C)CCN1CCC2(C)c3cc(O)ccc3CC1C2C (stereo not drawn) [Compound of formula (I), 3-(3-methyl-3-butenyl)-1,2,3,4,5,6-hexahydro-6,11-dimethyl-8-hydroxy-2,6-methano-3-benzazocine] | 29.3 | 0.51 | 35 | 0.38 | 0.76 | 14.3 | 889 | 14.3 | 0.09 | 161 | 80 | 205 | 61 | > 300 | analgesic activity [7]: unexpectedly a better analgesic activity than the known pentazocine |
| CN1CC[C@]23c4c5ccc(O)c4O[C@H]2[C@@H](O)C=C[C@H]3[C@H]1C5 [Morphine, morphine] | – | – | – | – | – | – | – | – | – | – | – | – | – | – | ED50 ([1]; oral administration): 35.5 mg/kg; ED50 ([1]; subcutaneous administration): 3.5 mg/kg; ED50 ([2]; oral administration): 85 mg/kg; ED50 ([2]; subcutaneous administration): 4.8 mg/kg; ED50 [3]: 5.2 mg/kg; ED50 ([5]; oral administration): 5.1 mg/kg; ED50 ([5]; subcutaneous administration): 0.56 mg/kg |
| CC(C)=CCN1CCC2(C)c3cc(O)ccc3CC1C2C (stereo not drawn) [Pentazocine, 3-(3-methyl-2-butenyl)-1,2,3,4,5,6-hexahydro-6,11-dimethyl-8-hydroxy-2,6-methano-3-benzazocine] | > 40 | > 40 | > 100 | 10.5 | > 40 | 3.7 | 40.6 | 82 | 3.45 | 15.7 | 140 | 305 | 165 | > 400 | – |
